Data set [1] has as its system rape Brassica napus. The data set is described as follows: Petri dish culture, growth inhibition of root and stalk of rape. Particulars: Brassica napus, 120 h, 5 days; for inhibition at 1 µg/mL: 1 mg/L; for inhibition at 10 µg/mL: 10 mg/L. Format: in vivo. In a few lines: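 Herbicidal activity against the dicotyledon rape (Brassica napus) was assessed using a standard Petri dish pre-emergence test. Twenty seeds were placed on two filter papers in a 9 cm dish containing 9 mL of test solution. Dishes were incubated for 5 days at 23 ± 1 °C, 60 ± 5% humidity, 10 Klux light, 12 h/day photoperiod. Ten roots and ten stalks were then measured, and percent growth inhibition was calculated relative to distilled-water controls.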

The test system of data set [2] is barnyard grass Echinochloa crusgalli. As to the kind of experiment: Petri dish culture, growth inhibition of root and stalk of barnyard grass. Format: in vivo. The following applies: Echinochloa crus-galli, 120 h, 5 days; for inhibition at 1 µg/mL: 1 mg/L; for inhibition at 10 µg/mL: 10 mg/L. In a few lines:
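Herbicidal activity toward the monocot barnyard grass (Echinochloa crusgalli) was assessed with a standard Petri dish pre-emergence test. Twenty seeds sat on two filter papers in a 9 cm dish wetted with 9 mL of test solution. Dishes were incubated 5 days at 23 ± 1 °C, 60 ± 5% humidity, 10 Klux, 12 h/day light. Mean lengths of 10 roots and 10 stems gave percent inhibition versus distilled-water controls.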

Data set [3] deals with rape Brassica napus. As to the kind of experiment: Concentration-dependent root elongation inhibition of rape (IC50). Format: in vivo. The following applies: Brassica napus; rape root elongation, Table 3; read-out: IC50 for the root elongation inhibition of rape. The procedure:
Several representative compounds selected from the 2-phenoxy-4H-3,1-benzoxazin-4-one and 2-phenoxy-3H-quinazolin-4-one groups were tested their concentration dependant activities and the half maximal inhibitory concentrations (IC50 values) are shown in Table 3. Obviously, the 2-phenoxy-4H-3,1-benzoxazin-4-ones 3m and 3o have IC50 values near to that of the commercial herbicidal 2,4-D. More importantly, these molecules consist of 2-phenoxymethyl group with halo substituents both at the 2- and 4- positions of the benzene ring, a similar pattern to the commercial hormone herbicides 2,4-D, clomeprop, and 2,4-DB, as well as the ACCase herbicide diclofop-methyl. […] Moreover, if no halo group exists on the benzene ring, the activity will decrease dramatically. On the other hand, the substructure 4H-3,1-benzoxazin-4-one in this work and the carboxylic group in the commercial phenoxyethanoic and phenoxypropionic acid herbicides play also a crucial role in the contribution to the activities of the compounds, meaning they are active substructures.
The herbicidal activity was examined for the growth inhibition effect of the dicotyledon rape Brassica napus and the monocotyledon barnyard grass Echinochloa crusgalli, using the standard Petri dish test and the pre-emergence treatment procedure. Briefly, the compounds to be tested were dissolved in DMF and emulsified with Tween 80, and the solutions were diluted with water to the concentrations of […], respectively. Nine mL of the solution was added in a Petri dish of 9 cm diameter and two pieces of filter paper were placed on the dish bottom. Twenty seeds each of rape and barnyard grass were placed on the filter paper. The covered Petri dish was transferred into an artificial climate incubator (MGC-400H, Shantou Keyi Co., Ltd., China), where the conditions were controlled at temperature 23 ± 1 °C, humidity 60 ± 5%, light intensity 10 Klux, and photoperiod 12 h/day. The incubation was continued for 5 days, then the lengths of 10 roots and 10 stems for each type of plant were measured and the mean values were calculated. The percent inhibitory ratios were calculated relative to control plants exposing to distilled water instead of the compound solution.

Where [4] appears, read: root growth, read-out: Relative inhibition, root.
[5] abbreviates: stalk growth, read-out: Relative inhibition, stalk.

Experimental findings from publication PMC6268642, “Facile Synthesis and Herbicidal Evaluation of 4H-3,1-Benzoxazin-4-ones and 3H-Quinazolin-4-ones with 2-Phenoxymethyl Substituents” (Molecules, 2012) are described below.

Where two headings read alike, the source gives them in different places.

Consider `COc1cc2nc(COc3ccc(Cl)cc3)oc(=O)c2cc1OC` [3l, 2-((4-Chlorophenoxy)methyl)-6,7-dimethoxy-4H-3,1-benzoxazin-4-one], for which the melting point (as a rule, the temperature, or range, at which the solid turns liquid) lay within 118.5 to 119.3 °C. Further, in the data set on rape Brassica napus [1] (setting [4]), the inhibition (as a rule, the relative decrease from the control value, in per cent) at 1 µg/mL was 96.3% and the inhibition at 10 µg/mL turned out to be 100%. Moreover, in the data set on rape Brassica napus [1] (setting [5]), the inhibition at 1 µg/mL is 74.5% and the inhibition at 10 µg/mL was found to be 83.4%. In data set [2] (setting [4]), the inhibition at 1 µg/mL stood at 65.5% and the inhibition at 10 µg/mL is 78.7%. Further, in data set [2] (setting [5]), the inhibition at 1 µg/mL came to 12.8% and the inhibition at 10 µg/mL turned out to be 22%. The IC50 (commonly the concentration at which inhibition is half-maximal) in the data set on rape Brassica napus [3] turned out to be 80.1 µM.
Compound `O=c1oc(COc2ccc(Cl)cc2)nc2ccc(Cl)cc12` [3i, 6-Chloro-2-((4-chlorophenoxy)methyl)-4H-3,1-benzoxazin-4-one] returned a melting point of 153.2 to 154.6 °C. Besides, in the data set on rape Brassica napus [1] (setting [4]), the inhibition at 1 µg/mL amounted to 91.4% and the inhibition at 10 µg/mL came to 100%. Also, in the data set on rape Brassica napus [1] (setting [5]), the inhibition at 1 µg/mL came out at 40.2% and the inhibition at 10 µg/mL was determined as 82.1%. Moreover, in data set [2] (setting [4]), the inhibition at 1 µg/mL turned out to be 55.3% and the inhibition at 10 µg/mL turned out to be 87.8%. Besides, in data set [2] (setting [5]), the inhibition at 1 µg/mL is -7.3% and the inhibition at 10 µg/mL is 13.2%. Besides, the IC50 in the data set with rape Brassica napus [3] is 22.3 µM.
